# Data reported in patent US10457655B2, “Compounds and compositions for inhibition of FASN” (FORMA Therapeutics, Inc., priority 2013, dated 2019).
# Target: FASN enzyme (Homo sapiens, UniProt P49327)
# Test: Enzymatic Assay for FASN Inhibitors
# Assay type: biochemical
# Conditions: not given
# Protocol: Assays were performed in a 384-well black plate to measure the inhibition of FASN activities by individual compounds herein disclosed. An aliquot of 250 nL of compound was incubated with 10 μL of 40 nM FASN enzyme in assay buffer (50 mM HEPES pH=7.3, 0.5 mM EDTA, 1 mM Ascorbate, 100 mM NaCl and 0.04% TritonX-100) in each well at 25° C. for 60 minutes. After the plate was centrifuged briefly, 10 μL of substrate mix (20 μM Acetyl-CoA, 60 μM Malonyl-CoA, and 100 μM NADPH in assay buffer) was added to each well. The reaction was maintained at 25° C. for 90 minutes. The reaction was then quenched by adding 10 μL of 90 μM 7-Diethylamino-3-(4′-Maleimidylpheynyl)-4-Methylcoumarin in 50/50 Ethanol/H2O solution. The assay plate was incubated at 25° C. for 15 minutes, and read on a plate reader with excitation and emission wavelength at 360 nm and 530 nm, respectively. The IC50 of a given compound was calculated by fitting the dose response curve with a four parameter logistic equation.
# FASN enzyme, sequence (P49327 whole entry): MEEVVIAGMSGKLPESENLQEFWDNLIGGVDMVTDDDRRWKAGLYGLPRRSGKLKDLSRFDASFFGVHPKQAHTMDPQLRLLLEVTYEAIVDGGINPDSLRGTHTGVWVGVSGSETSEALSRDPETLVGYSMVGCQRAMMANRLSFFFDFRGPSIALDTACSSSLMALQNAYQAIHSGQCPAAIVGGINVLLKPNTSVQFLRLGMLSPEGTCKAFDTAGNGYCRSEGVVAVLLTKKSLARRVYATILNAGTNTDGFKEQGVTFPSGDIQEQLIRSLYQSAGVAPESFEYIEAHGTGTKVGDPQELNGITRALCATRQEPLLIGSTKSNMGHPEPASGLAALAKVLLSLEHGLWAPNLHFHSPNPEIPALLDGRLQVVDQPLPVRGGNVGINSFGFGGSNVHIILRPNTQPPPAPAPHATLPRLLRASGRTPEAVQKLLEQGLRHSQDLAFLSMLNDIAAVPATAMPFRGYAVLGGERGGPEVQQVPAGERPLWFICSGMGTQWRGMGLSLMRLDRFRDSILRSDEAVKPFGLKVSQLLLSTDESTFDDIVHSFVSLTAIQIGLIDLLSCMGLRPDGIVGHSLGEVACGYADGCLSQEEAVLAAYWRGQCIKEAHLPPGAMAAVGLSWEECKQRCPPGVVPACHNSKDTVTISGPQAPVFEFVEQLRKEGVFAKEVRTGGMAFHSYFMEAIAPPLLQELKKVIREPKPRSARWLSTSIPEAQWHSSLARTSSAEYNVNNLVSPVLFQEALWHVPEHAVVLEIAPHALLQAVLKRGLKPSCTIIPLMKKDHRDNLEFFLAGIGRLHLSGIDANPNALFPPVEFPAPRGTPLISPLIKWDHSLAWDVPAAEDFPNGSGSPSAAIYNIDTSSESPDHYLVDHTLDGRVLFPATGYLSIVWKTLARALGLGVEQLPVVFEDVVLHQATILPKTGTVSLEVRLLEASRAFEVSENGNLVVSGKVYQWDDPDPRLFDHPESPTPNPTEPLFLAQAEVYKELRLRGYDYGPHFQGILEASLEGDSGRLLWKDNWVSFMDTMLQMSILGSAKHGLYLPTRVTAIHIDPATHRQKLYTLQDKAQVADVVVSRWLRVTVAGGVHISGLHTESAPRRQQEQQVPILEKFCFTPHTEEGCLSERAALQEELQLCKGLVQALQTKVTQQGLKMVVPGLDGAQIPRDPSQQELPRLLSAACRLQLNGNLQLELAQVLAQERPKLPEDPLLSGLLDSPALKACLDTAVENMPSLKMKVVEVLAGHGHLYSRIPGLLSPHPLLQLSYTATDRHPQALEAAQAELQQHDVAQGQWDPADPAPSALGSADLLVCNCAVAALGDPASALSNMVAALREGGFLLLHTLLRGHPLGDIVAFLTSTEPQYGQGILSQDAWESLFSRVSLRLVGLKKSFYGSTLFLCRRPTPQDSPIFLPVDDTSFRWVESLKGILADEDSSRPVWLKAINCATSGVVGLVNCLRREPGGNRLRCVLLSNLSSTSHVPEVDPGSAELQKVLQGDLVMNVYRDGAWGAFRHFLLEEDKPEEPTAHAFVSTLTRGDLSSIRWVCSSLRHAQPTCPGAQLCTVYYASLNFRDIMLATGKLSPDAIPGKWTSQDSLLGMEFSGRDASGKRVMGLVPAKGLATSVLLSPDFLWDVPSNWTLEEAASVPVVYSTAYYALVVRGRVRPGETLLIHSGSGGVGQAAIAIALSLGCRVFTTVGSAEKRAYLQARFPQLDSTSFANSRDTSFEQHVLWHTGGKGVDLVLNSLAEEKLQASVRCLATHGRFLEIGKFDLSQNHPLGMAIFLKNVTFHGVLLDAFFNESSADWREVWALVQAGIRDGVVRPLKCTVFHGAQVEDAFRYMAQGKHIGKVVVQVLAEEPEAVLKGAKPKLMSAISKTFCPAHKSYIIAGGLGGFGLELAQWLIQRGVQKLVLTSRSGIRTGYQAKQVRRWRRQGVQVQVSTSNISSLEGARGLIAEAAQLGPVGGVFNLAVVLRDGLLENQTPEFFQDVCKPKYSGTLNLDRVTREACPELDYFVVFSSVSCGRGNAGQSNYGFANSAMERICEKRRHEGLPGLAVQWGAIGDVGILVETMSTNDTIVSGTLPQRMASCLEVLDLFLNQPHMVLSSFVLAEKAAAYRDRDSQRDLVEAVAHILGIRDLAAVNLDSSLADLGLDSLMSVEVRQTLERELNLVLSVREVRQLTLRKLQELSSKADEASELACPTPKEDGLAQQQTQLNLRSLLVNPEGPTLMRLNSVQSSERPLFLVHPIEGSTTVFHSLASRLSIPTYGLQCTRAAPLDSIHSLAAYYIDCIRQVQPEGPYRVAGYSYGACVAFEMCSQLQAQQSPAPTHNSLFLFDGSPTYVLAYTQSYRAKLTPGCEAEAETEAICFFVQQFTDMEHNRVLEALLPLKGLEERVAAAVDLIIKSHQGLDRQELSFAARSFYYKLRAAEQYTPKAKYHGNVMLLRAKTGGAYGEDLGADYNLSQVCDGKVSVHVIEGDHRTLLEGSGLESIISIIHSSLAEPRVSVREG
row,SMILES,IC50
1,Cn1ncc2ccc(-c3ccc(C(=O)N4CCN(C(=O)C5(N)CCC5)CC4)cc3)cc21 [1-{4-[4-(1-methyl-1H-indazol-6-yl)benzoyl]piperazine-1-carbonyl}cyclobutan-1-amine],< 500 nM
2,Cc1n[nH]c2c(-c3ccc(C(=O)N4CCN(C(=O)C5(O)CC5)CC4)cc3)cccc12 [1-{4-[4-(3-methyl-1H-indazol-7-yl)benzoyl]piperazine-1-carbonyl}cyclopropan-1-ol],< 500 nM
3,O=C(c1ccc(-c2ncc3cc(F)ccc3n2)cc1)N1CCN(C(=O)C2(O)CC2)CC1 [1-{4-[4-(6-fluoroquinazolin-2-yl)benzoyl]piperazine-1-carbonyl}cyclopropan-1-ol],< 500 nM
4,"O=C(c1ccc(-c2cccc(NS(=O)(=O)CCC(F)(F)F)c2)cc1)N1CCN(C(=O)C2(O)CC2)CC1 [3,3,3-trifluoro-N-(3-{4-[4-(1-hydroxycyclopropanecarbonyl)piperazine-1-carbonyl]phenyl}phenyl)propane-1-sulfonamide]",< 500 nM
5,"C[C@H]1CN(C(=O)c2ccc(N3CCc4cccnc4C3)cc2)CCN1C(=O)C1(O)CC1 [1-[(2S)-2-methyl-4-[4-(5,6,7,8-tetrahydro-1,7-naphthyridin-7-yl)benzoyl]piperazine-1-carbonyl]cyclopropan-1-ol]",< 500 nM
6,"O=C(c1ccc(-c2cccc(N3CCCS3(=O)=O)c2)cc1)N1CCN(C(=O)C2(O)CC2)CC1 [2-(3-{4-[4-(1-hydroxycyclopropanecarbonyl)piperazine-1-carbonyl]phenyl}phenyl)-1λ^6,2-thiazolidine-1,1-dione]",< 500 nM
7,"Cn1cnc2cc(-c3ccc(C(=O)N4CCN(C(=O)C5(O)CCC5)CC4)cc3)ccc21 [1-{4-[4-(1-methyl-1H-1,3-benzodiazol-5-yl)benzoyl]piperazine-1-carbonyl}cyclobutan-1-ol]",< 500 nM
8,C[C@H]1CN(C(=O)c2ccc(-c3cccc(S(=O)(=O)C4CC4)c3)cc2)CCN1C(=O)C1(O)CC1 [1-[(2S)-4-{4-[3-(cyclopropanesulfonyl)phenyl]benzoyl}-2-methylpiperazine-1-carbonyl]cyclopropan-1-ol],< 500 nM
9,"O=C(c1ccc(-c2nc3ccc(F)cc3o2)c(F)c1)N1CCN(C(=O)C2(O)CC2)CC1 [1-{4-[3-fluoro-4-(6-fluoro-1,3-benzoxazol-2-yl)benzoyl]piperazine-1-carbonyl}cyclopropan-1-ol]",< 500 nM
10,Cc1cc2ccccc2n1-c1ccc(C(=O)N2CCN(C(=O)C3(O)CC3)CC2)c(F)c1 [1-{4-[2-fluoro-4-(2-methyl-1H-indol-1-yl)benzoyl]piperazine-1-carbonyl}cyclopropan-1-ol],< 500 nM
11,"C[C@H]1CN(C(=O)c2ccc(-c3nc4ccc(F)cc4o3)cc2)CCN1C(=O)C1(N)CC1 [1-[(2S)-4-[4-(6-fluoro-1,3-benzoxazol-2-yl)benzoyl]-2-methylpiperazine-1-carbonyl]cyclopropan-1-amine]",< 500 nM
12,"Cn1cnc2cc(-c3ccc(C(=O)N4CCN(C(=O)C5(N)CCC5)CC4)c(F)c3)ccc21 [1-{4-[2-fluoro-4-(1-methyl-1H-1,3-benzodiazol-5-yl)benzoyl]piperazine-1-carbonyl}cyclobutan-1-amine]",< 500 nM
13,"Nc1nc(-c2cccc(-c3ccc(C(=O)N4CCN(C(=O)C5(O)CC5)CC4)cc3)c2)n[nH]1 [1-(4-{4-[3-(5-amino-1H-1,2,4-triazol-3-yl)phenyl]benzoyl}piperazine-1-carbonyl)cyclopropan-1-ol]",< 500 nM
14,"N#Cc1ccc2oc(-c3ccc(C(=O)N4CCN(C(=O)C5(O)CC5)CC4)cc3)nc2c1 [2-[4-({4-[(1-hydroxycyclopropyl)carbonyl]piperazin-1-yl}carbonyl)phenyl]-1,3-benzoxazole-5-carbonitrile]",< 500 nM
15,"C[C@@H]1CN(C(=O)c2ccc(-c3nc4ccc(F)cc4o3)cc2)CCN1C(=O)C1(O)CC1 [1-[(2R)-4-[4-(6-fluoro-1,3-benzoxazol-2-yl)benzoyl]-2-methylpiperazine-1-carbonyl]cyclopropan-1-ol]",< 500 nM
16,Cc1n[nH]c2cc(-c3ccc(C(=O)N4CCN(C(=O)C5(O)CC5)CC4)c(F)c3)ccc12,< 500 nM

row,SMILES,IC50
1,"O=C(c1ccc(N2CCc3ccccc32)cc1)N1CCN(C(=O)C2(O)CC2)CC1 [1-{4-[4-(2,3-dihydro-1H-indol-1-yl)benzoyl]piperazine-1-carbonyl}cyclopropan-1-ol]",< 500 nM
2,C[C@H]1CN(C(=O)C2(O)CC2)CCN1C(=O)c1ccc(-c2ccc(Cl)cc2F)cc1 [1-[(3S)-4-[4-(4-chloro-2-fluorophenyl)benzoyl]-3-methylpiperazine-1-carbonyl]cyclopropan-1-ol],< 500 nM
3,"C[C@@H]1CN(C(=O)C2(O)CC2)CCN1C(=O)c1ccc(-c2ccc3c(c2)ncn3C)cc1 [1-[(3R)-3-methyl-4-[4-(1-methyl-1H-1,3-benzodiazol-5-yl)benzoyl]piperazine-1-carbonyl]cyclopropan-1-ol]",< 500 nM
4,Cc1n[nH]c2c(-c3ccc(C(=O)N4CCN(C(=O)C5(N)CC5)CC4)cc3)cccc12,< 500 nM
5,CC(C)OC(=O)Nc1cccc(-c2ccc(C(=O)N3CCN(C(=O)C4(O)CC4)CC3)cc2)c1 [propan-2-yl N-(3-{4-[4-(1-hydroxycyclopropanecarbonyl)piperazine-1-carbonyl]phenyl}phenyl)carbamate],< 500 nM
6,"Nc1cc(-c2cccc(-c3ccc(C(=O)N4CCN(C(=O)C5(O)CC5)CC4)cc3)c2)no1 [1-(4-{4-[3-(5-amino-1,2-oxazol-3-yl)phenyl]benzoyl}piperazine-1-carbonyl)cyclopropan-1-ol]",< 500 nM
7,"Cc1nc2ccccc2n1-c1ccc(C(=O)N2CCN(C(=O)C3(O)CC3)CC2)cc1 [1-{4-[4-(2-methyl-1H-1,3-benzodiazol-1-yl)benzoyl]piperazine-1-carbonyl}cyclopropan-1-ol]",< 500 nM
8,Nc1cc(-c2cccc(-c3ccc(C(=O)N4CCN(C(=O)C5(O)CC5)CC4)cc3)c2)n[nH]1 [1-(4-{4-[3-(5-amino-1H-pyrazol-3-yl)phenyl]benzoyl}piperazine-1-carbonyl)cyclopropan-1-ol],< 500 nM
9,C[C@H]1CN(C(=O)c2ccc(-c3ccc(Cl)cc3F)cc2)CCN1C(=O)C1(O)CC1,< 500 nM
10,"Nc1noc2ccc(-c3ccc(C(=O)N4CCN(C(=O)C5(N)CC5)CC4)cc3)cc12 [5-{4-[4-(1-aminocyclopropanecarbonyl)piperazine-1-carbonyl]phenyl}-1,2-benzoxazol-3-amine]",< 500 nM
11,"O=C(c1ccc(-c2nc3ccc(Cl)cc3o2)c(Cl)c1)N1CCN(C(=O)C2(O)CC2)CC1 [1-{4-[3-chloro-4-(6-chloro-1,3-benzoxazol-2-yl)benzoyl]piperazine-1-carbonyl}cyclopropan-1-ol]",< 500 nM
12,Cn1cnc2cc(-c3ccc(C(=O)N4CCN(C(=O)C5(N)CCC5)CC4)cc3)ccc21,< 500 nM
13,"O=C(c1ccc(-c2nc3ccccn3c2Cl)cc1Cl)N1CCN(C(=O)C2(O)CC2)CC1 [1-[4-(2-chloro-4-{3-chloroimidazo[1,2-a]pyridin-2-yl}benzoyl)piperazine-1-carbonyl]cyclopropan-1-ol]",< 500 nM
14,"O=C(c1ccc(-c2nc3ccc(F)cc3o2)cc1F)N1CCN(C(=O)C2(O)CC2)CC1 [1-{4-[2-fluoro-4-(6-fluoro-1,3-benzoxazol-2-yl)benzoyl]piperazine-1-carbonyl}cyclopropan-1-ol]",< 500 nM
15,"Nc1noc2ccc(-c3ccc(C(=O)N4CCN(C(=O)C5(O)CC5)CC4)cc3)cc12 [1-{4-[4-(3-amino-1,2-benzoxazol-5-yl)benzoyl]piperazine-1-carbonyl}cyclopropan-1-ol]",< 500 nM

# Same assay, conditions: FASN enzymatic assay; Table 2-2
row,SMILES,IC50
1,COc1cc(C(=O)N2CCN(C(=O)C3(O)CC3)CC2)ccc1-c1ccc2ncccc2c1 [1-[(4-{[3-methoxy-4-(quinolin-6-yl)phenyl]carbonyl}piperazin-1-yl)carbonyl]cyclopropan-1-ol],500 to 5000 nM
2,"O=C(c1ccc(-c2cnc3ccc(Cl)cn23)cc1)N1CCN(C(=O)C2(O)CC2)CC1 [1-({4-[(4-{6-chloroimidazo[1,2-a]pyridin-3-yl}phenyl)carbonyl]piperazin-1-yl}carbonyl)cyclopropan-1-ol]",500 to 5000 nM
3,"COc1ccc2[nH]c(-c3ccc(C(=O)N4CCN(C(=O)C5(O)CC5)CC4)cc3)nc2c1 [1-[(4-{[4-(5-methoxy-1H-1,3-benzodiazol-2-yl)phenyl]carbonyl}piperazin-1-yl)carbonyl]cyclopropan-1-ol]",500 to 5000 nM
4,"Cc1noc2cc(-c3ccc(C(=O)N4CCN(C(=O)C5(O)CC5)CC4)cc3)ccc12 [1-[(4-{[4-(3-methyl-1,2-benzoxazol-6-yl)phenyl]carbonyl}piperazin-1-yl)carbonyl]cyclopropan-1-ol]",500 to 5000 nM
5,"COc1cc(-c2ccc3scnc3c2)ccc1C(=O)N1CCN(C(=O)C2(O)CC2)CC1 [1-[(4-{[4-(1,3-benzothiazol-5-yl)-2-methoxyphenyl]carbonyl}piperazin-1-yl)carbonyl]cyclopropan-1-ol]",500 to 5000 nM
6,Cc1ccc(-c2ccc(C(=O)N3CCN(C(=O)C4(O)CC4)CC3)cc2)cc1F [1-[(4-{[4-(3-fluoro-4-methylphenyl)phenyl]carbonyl}piperazin-1-yl)carbonyl]cyclopropan-1-ol],500 to 5000 nM
7,COc1ccc2cc(-c3ccc(C(=O)N4CCN(C(=O)C5(O)CC5)CC4)cn3)ccc2n1 [1-[(4-{[6-(2-methoxyquinolin-6-yl)pyridin-3-yl]carbonyl}piperazin-1-yl)carbonyl]cyclopropan-1-ol],500 to 5000 nM
8,"O=C(c1ccc(-c2ccc3nccn3c2)cc1)N1CCN(C(=O)C2(O)CC2)CC1 [1-({4-[(4-{imidazo[1,2-a]pyridin-6-yl}phenyl)carbonyl]piperazin-1-yl}carbonyl)cyclopropan-1-ol]",500 to 5000 nM
